The record followed here is US9877980B2, “Method and composition for treatment or prevention of type 2 diabetes and hyperlipidemia” (Chun-Ching Shih, priority 2016, dated 2018).

For one assay, the system named is AMPK. The assay is described as follows: Western blotting of phospho-AMPK/total AMPK in skeletal muscle and liver. It counts as in vivo. As to conditions: HFD mice, 4 weeks, vs HF group. The method, then: (§1) The following experiment was performed and approved by the guidelines of the Institutional Animal Care and Use Committee of Central Taiwan University of Science and Technology. The 4-week old male C57BL/6J mice (total amount n=63) were purchased from the National Laboratory Animal Breeding and Research Center (Taipei, Taiwan). After acclimatization for one week, all of the mice were divided randomly into the control (CON) group and the high-fat diet (HFD) group. For the following 12 weeks, the CON group (n=9) was kept on a low-fat diet (Diet 12450B, Research Diets, Inc., New Brunswick, N.J., USA), while the HFD group (n=54) was exposed to a high-fat diet (Diet 12451, Research Diets, New Brunswick, N.J., USA). The low-fat diet was composed of protein 20%, carbohydrate 70% and fat 10%, whereas the high-fat diet was composed of protein 20%, carbohydrate 35%, and fat 45% (of total energy, % kcal). After HFD exposure for 8 weeks, the HFD group was further randomly subdivided into 6 groups (n=9 per group) to receive different treatments by oral gavage once daily for four weeks and on HFD. […] The HF+B1, HF+B2, and […] are collectively termed BB-treated HFD groups in the following examples. The CON mice were administered vehicle. After dosing for 4 weeks, the mice were given no food at night and sacrificed after 12 h of fasting on the next day. All of the individual tissues were collected and weighed, and portions were instantly frozen using liquid nitrogen and kept at −80° C. for subsequent target gene analysis. Blood samples (0.8 mL) were collected for analysis of blood parameters.
Protein extractions and immunoblots for the determination of phospho-AMPK (Thr^172) and phospho-Akt (Ser^473) proteins in skeletal muscle and liver tissue of mice (n=9) were carried out. About 0.1 g of liver tissue and skeletal muscle was used for the homogenate samples. Samples were powdered under liquid nitrogen and homogenized for 20 seconds in 500 μL buffer containing 20 mM Tris-HCL1 (pH 7.4 at 4° C.), 2% SDS, 5 mM EDTA, 5 mM EGTA, 1 mM DTT, 100 mM NaF, 2 mM sodium vanadate, 0.5 mM phenylmethylsulfonyl fluoride, 10 μg/mL leupeptin, and […] pepstatin. The protein concentration in supernatant was determined with a BCA protein assay kit (Thermo Scientific, Rockford, Ill., USA). 20 μg of proteins were separated by electrophoresis on a polyacrylamide gel 12% (SDS-PAGE) and transferred to a nitrocellulose membrane. The membranes were blocked with 5% slim milk in Tris-buffered saline (TBS)(Amersham BioSciences, Uppsala, Sweden) containing 0.05% Tween-20 (Bio Rad, CA, USA) and incubated overnight at 4° C. with anti-phospho-AMPK (Abcam Inc., Cambridge, Mass., USA) and anti-phospho-Akt (Cell signaling Technology, Inc., Danvers, Mass., USA) rabbit polyclonal antibodies at 1:200 dilution. Subsequently, the membranes were washed three times with TBS containing 0.05% Tween-20 and incubated with secondary antibody anti-rabbit (1:1000) (Jackson ImmunoResearch Laboratories, Inc., PA, USA) for 1 hour. Immunoreactive bands were detected with ECL reagent kit (GE Healthcare BioSciences, Buckinghamshire, UK). The intensity of blotting was analyzed using Alpha Easy FC software (Alpha Innotech Corporation, Randburg, South Africa). Structural proteins GAPDH (Santa Cruz Biotechnology, CA, USA) in the samples were used as the loading control.
(In western blotting, separated proteins are transferred to a membrane and probed.)

A further assay has as its system GPAT. Briefly: Semi-quantitative RT-PCR of liver mRNA: GPAT. The format is in vivo. As to conditions: HFD mice, 4 weeks, vs HF group. The method, then:
as §1, with “For the following 12 weeks, the CON group (n=9) was kept on a low-fat diet (Diet 12450B, Research Diets, Inc., New Brunswick, N.J., USA), while the HFD group (n=54) was exposed to a high-fat diet (Diet 12451, Research Diets, New Brunswick, N.J., USA). The low-fat diet was composed of protein 20%, carbohydrate 70% and fat 10%, whereas the high-fat diet was composed of protein 20%, carbohydrate 35%, and fat 45% (of total energy, % kcal).” left out
Total RNA from liver tissue of mice was isolated with a Trizol Reagent (Molecular Research Center, Inc., Cincinnati, Ohio, USA) according to the manufacturer's instructions. The integrity of the extracted total RNA was examined by 2% agarose gel electrophoresis, and the RNA concentration was determined by the ultraviolet (UV) light absorbency at 260 nm and 280 nm (Spectrophotometer U-2800A, Hitachi). The quality of the RNA was confirmed by ethidium bromide staining of 18S and 28S ribosomal RNA after electrophoresis on 2% agarose gel containing 6% formaldehyde.
Levels of mRNA of genes of interest were quantified by semi-quantitative reverse transcription polymerase chain reaction (RT-PCR). […] PCR products were analyzed by 2% agarose gels and stained with ethidium bromide.

On to `OCC1O[C@@H](O[C@@H]2Cc3c(O)cc(O)cc3O[C@@H]2c2ccc(O)c(O)c2)C(O)C(O)[C@@H]1O` (single isomer, unassigned; (-)) [compound of formula I, (−)-epicatechin-3-O-β-D-allopyranoside], for which the “expression level of phospho-AMPK/total AMPK” value with AMPK (liver, 10 mg/kg/day oral gavage) was “enhanced”; with AMPK (liver, 20 mg/kg/day oral gavage), “enhanced”; in the assay with AMPK (liver, 40 mg/kg/day oral gavage), “enhanced”; in the assay with AMPK (skeletal muscle, 10 mg/kg/day oral gavage) it was “enhanced”; in the assay on AMPK (skeletal muscle, 20 mg/kg/day oral gavage), “enhanced”; in the assay on AMPK (skeletal muscle, 40 mg/kg/day oral gavage) it was “enhanced”. For the same compound, the “liver mRNA level of GPAT” value in the assay on GPAT (10 mg/kg/day oral gavage), in the assay on GPAT (20 mg/kg/day oral gavage) and in the assay with GPAT (40 mg/kg/day oral gavage) was “significantly reduced” in each case.
